Reference: article doi:10.1101/2023.11.24.568596v1 (biorxiv, 2023)
Blank lines part the entries; values can stand above or below the compound they belong to.

Tests used:
Details in all cases: binder
BMPR2 = biological target: T1, BMPR2 (Homo sapiens, UniProt Q13873)
T1 sequence (Q13873 1-1038): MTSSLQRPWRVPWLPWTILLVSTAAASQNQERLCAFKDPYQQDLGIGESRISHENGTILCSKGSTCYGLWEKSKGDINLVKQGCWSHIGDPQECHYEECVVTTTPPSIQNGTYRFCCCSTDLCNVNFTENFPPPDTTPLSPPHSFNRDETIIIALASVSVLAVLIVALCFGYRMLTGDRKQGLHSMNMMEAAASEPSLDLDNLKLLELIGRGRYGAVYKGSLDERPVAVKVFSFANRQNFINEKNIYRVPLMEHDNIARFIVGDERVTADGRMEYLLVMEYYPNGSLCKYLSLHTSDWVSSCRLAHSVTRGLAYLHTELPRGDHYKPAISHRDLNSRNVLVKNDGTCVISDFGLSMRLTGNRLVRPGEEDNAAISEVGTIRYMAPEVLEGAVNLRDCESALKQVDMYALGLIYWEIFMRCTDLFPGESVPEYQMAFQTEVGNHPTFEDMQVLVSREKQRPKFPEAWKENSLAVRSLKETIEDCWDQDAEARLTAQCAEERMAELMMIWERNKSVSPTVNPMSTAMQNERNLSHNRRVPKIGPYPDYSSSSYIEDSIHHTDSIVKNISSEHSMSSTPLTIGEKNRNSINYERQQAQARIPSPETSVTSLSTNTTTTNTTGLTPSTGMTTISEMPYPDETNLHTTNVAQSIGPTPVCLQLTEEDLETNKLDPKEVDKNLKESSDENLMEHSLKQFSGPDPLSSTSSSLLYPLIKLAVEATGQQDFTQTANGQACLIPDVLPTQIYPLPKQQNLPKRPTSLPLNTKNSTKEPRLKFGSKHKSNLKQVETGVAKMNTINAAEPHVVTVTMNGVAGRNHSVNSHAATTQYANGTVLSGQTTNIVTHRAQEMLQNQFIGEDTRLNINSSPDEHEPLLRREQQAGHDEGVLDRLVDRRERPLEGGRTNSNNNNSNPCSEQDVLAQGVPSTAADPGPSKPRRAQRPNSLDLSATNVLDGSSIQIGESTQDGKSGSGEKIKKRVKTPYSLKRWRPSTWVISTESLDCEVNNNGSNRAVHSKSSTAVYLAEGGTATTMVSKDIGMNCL

CASK = biological target: T2, CASK (Homo sapiens, UniProt O14936)
T2 sequence (O14936 1-926): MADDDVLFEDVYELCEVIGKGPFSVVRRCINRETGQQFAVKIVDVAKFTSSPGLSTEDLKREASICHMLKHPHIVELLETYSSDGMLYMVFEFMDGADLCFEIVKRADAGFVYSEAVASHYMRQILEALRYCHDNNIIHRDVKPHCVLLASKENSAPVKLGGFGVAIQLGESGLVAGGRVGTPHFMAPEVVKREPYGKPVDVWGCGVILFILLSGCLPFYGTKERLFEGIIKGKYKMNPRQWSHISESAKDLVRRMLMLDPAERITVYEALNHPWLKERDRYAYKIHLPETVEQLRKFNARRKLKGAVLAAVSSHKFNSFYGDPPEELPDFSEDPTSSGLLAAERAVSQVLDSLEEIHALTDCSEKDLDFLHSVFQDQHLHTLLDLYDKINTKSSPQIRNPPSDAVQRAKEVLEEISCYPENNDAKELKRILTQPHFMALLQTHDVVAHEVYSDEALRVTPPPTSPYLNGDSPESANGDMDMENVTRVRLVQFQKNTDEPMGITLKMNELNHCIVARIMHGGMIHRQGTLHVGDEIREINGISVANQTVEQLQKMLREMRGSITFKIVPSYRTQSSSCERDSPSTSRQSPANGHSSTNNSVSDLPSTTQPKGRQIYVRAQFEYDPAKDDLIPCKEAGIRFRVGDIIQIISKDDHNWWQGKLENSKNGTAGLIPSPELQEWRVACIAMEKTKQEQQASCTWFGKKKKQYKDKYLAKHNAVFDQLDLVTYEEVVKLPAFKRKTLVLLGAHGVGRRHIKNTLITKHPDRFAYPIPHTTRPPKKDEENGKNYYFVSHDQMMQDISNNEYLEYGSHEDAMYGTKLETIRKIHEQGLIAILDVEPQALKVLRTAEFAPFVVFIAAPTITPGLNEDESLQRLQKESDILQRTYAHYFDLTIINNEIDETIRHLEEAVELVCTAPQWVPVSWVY

DYRK2 = biological target: T3, DYRK2 (Homo sapiens, UniProt Q92630)
T3 sequence (Q92630 1-601): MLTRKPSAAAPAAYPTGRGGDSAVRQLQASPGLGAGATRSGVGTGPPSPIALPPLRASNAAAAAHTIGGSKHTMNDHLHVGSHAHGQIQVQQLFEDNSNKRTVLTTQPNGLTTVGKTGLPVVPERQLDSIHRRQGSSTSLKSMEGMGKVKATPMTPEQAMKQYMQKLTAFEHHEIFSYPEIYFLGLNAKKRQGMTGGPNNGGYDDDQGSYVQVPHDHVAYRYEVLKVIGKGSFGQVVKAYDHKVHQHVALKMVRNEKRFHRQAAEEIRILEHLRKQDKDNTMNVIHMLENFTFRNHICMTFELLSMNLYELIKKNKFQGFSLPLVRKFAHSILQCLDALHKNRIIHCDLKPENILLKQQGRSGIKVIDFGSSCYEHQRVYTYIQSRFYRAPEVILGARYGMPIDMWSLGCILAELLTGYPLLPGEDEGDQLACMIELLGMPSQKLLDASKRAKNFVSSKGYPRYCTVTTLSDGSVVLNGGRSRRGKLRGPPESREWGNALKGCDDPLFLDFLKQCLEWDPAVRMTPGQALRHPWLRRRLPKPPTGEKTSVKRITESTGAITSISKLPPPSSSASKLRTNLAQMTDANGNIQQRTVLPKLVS

Structure (SMILES): Cc1cccc(-c2ccc(-c3cc4cnc(NCCCN5CCCC5=O)nc4n(CCCCN)c3=O)c(Cl)c2)n1 [compound 27, MR30]
ΔTm MR30 (27) (BMPR2): -0.1 °C
ΔTm MR30 (27) (CASK): -0.3 °C
ΔTm MR30 (27) (DYRK2): -0.4 °C

Structure (SMILES): Cc1cccc(-c2ccc(-c3cc4cnc(NCCCN5CCNCC5)nc4n(CCCCN)c3=O)c(Cl)c2)n1 [compound 29, 8-(4-Aminobutyl)-6-(2-chloro-4-(6-methylpyridin-2-yl)phenyl)-2-((3-(piperazin-1-yl)propyl)amino)pyrido[2,3-d]pyrimidin-7(8H)-one]
ΔTm 29 (BMPR2): 0.0 °C
ΔTm 29 (CASK): -0.5 °C
ΔTm 29 (DYRK2): -0.2 °C

Structure (SMILES): Cc1cccc(-c2ccc(-c3cc4cnc(Nc5ccc(O)cc5)nc4n(CCCCN)c3=O)c(Cl)c2)n1 [compound 31, 8-(4-Aminobutyl)-6-(2-chloro-4-(6-methylpyridin-2-yl)phenyl)-2-((4-hydroxyphenyl)amino) pyrido[2,3-d]pyrimidin-7(8H)-one]
ΔTm 31 (BMPR2): 1.0 °C
ΔTm 31 (CASK): -0.2 °C
ΔTm 31 (DYRK2): -0.8 °C

Second part, the compound after the results:

ΔTm 28 (BMPR2): -0.1 °C
ΔTm 28 (CASK): 0.0 °C
ΔTm 28 (DYRK2): -0.7 °C
Structure (SMILES): Cc1cccc(-c2ccc(-c3cc4cnc(Nc5cc(C(F)(F)F)ccc5C)nc4n(CCCCN)c3=O)c(Cl)c2)n1 [compound 28, 8-(4-Aminobutyl)-6-(2-chloro-4-(6-methylpyridin-2-yl)phenyl)-2-((2-methyl-5-(trifluoromethyl)phenyl)amino)pyrido[2,3-d]pyrimidin-7(8H)-one]

ΔTm 30 (BMPR2): -0.2 °C
ΔTm 30 (CASK): -0.5 °C
ΔTm 30 (DYRK2): -1.1 °C
Structure (SMILES): Cc1cccc(-c2ccc(-c3cc4cnc(Nc5ccc(CCCO)cc5)nc4n(CCCCN)c3=O)c(Cl)c2)n1 [compound 30, 8-(4-Aminobutyl)-6-(2-chloro-4-(6-methylpyridin-2-yl)phenyl)-2-((4-(3-hydroxypropyl)phenyl)amino)pyrido[2,3-d]pyrimidin-7(8H)-one]

ΔTm 32 (BMPR2): -0.4 °C
ΔTm 32 (CASK): 0.0 °C
ΔTm 32 (DYRK2): -1.4 °C
Structure (SMILES): Cc1cccc(-c2ccc(-c3cc4cnc(Nc5ccc(C)c(O)c5)nc4n(CCCCN)c3=O)c(Cl)c2)n1 [compound 32, 8-(4-Aminobutyl)-6-(2-chloro-4-(6-methylpyridin-2-yl)phenyl)-2-((3-hydroxy-4-methylphenyl)amino)pyrido[2,3-d]pyrimidin-7(8H)-one]
